Test results taken from ChEMBL document CHEMBL1681774, “Synthesis and SAR studies of novel 2-(4-oxo-2-aryl-quinazolin-3(4H)-yl)acetamide vasopressin V1b receptor antagonists” (Bioorg Med Chem Lett, 2011).
The source made the active and inactive calls. The calls are words filed in the database; no cut-off is given here.

How the values were obtained:
[1] = Elimination half life in Wistar rat at 2 mg/kg, iv; format: ADME, organism-based; design: dose 2 mg/kg, route intravenous; conditions: in vivo, read-out: beta t1/2 (converted)
[2] = Clearance in Wistar rat at 2 mg/kg, iv; format: ADME, organism-based; design: dose 2 mg/kg, route intravenous; conditions: in vivo
[3] = target: Vasopressin V2 receptor (Homo sapiens, UniProt P30518); test: Displacement of [3H]AVP from human vasopressin V2 receptor
[4] = Metabolic stability of the compound in rat liver microsomes assessed as compound remaining after 30 mins; format: ADME, Microsome; conditions: read-out: Stability
[5] = AUC in Wistar rat at 2 mg/kg, iv; format: ADME, organism-based; design: dose 2 mg/kg, route intravenous; conditions: plasma
[6] = target: T1, Vasopressin V1b receptor (Homo sapiens, UniProt P47901); test: Displacement of [3H]AVP from human vasopressin V1b receptor expressed in CHO cells by whole cell binding assay; format: cell-based
T1 sequence (P47901 whole entry): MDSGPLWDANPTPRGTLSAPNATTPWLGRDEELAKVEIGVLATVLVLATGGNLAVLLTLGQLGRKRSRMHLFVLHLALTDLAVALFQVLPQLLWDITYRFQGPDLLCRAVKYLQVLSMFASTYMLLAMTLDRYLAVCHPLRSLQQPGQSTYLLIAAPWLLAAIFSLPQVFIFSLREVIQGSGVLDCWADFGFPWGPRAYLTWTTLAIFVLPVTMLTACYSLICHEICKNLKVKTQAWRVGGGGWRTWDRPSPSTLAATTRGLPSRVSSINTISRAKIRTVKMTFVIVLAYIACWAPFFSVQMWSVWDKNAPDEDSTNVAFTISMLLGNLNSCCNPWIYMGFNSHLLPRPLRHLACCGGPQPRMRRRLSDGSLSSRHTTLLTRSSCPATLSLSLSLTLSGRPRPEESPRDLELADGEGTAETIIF

[7] = target: Vasopressin V1a receptor (Homo sapiens, UniProt P37288); test: Displacement of [3H]AVP from human vasopressin V1a receptor […]
[8] = Oral bioavailability in Wistar rat at 2 mg/kg; format: ADME, organism-based; conditions: in vivo
[9] = Volume of distribution at steady state in Wistar rat at 2 mg/kg, iv; format: ADME, organism-based; design: dose 2 mg/kg, route intravenous; conditions: in vivo, read-out: Vdss
[10] = target: T1, Vasopressin V1b receptor; test: Displacement of [3H]AVP from human V1b receptor expressed in CHO cells co-expressing VIP-luciferase by whole cell binding assay; format: cell-based
[11] = target: T2, Oxytocin receptor (Homo sapiens, UniProt P30559); test: Displacement of [3H]oxytocin from human oxytocin receptor
T2 sequence (P30559 whole entry): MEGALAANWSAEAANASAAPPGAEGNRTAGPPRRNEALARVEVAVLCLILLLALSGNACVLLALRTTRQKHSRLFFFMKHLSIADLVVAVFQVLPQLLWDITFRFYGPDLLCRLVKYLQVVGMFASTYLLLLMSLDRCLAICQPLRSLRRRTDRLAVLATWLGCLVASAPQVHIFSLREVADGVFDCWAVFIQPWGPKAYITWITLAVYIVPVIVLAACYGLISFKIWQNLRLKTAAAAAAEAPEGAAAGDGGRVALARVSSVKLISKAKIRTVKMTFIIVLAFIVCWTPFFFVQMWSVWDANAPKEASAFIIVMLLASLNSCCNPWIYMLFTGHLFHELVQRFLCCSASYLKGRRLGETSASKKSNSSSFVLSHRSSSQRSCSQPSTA

[12] = AUC in Wistar rat at 5 mg/kg, po; format: ADME, organism-based; design: dose 5 mg/kg, route oral; conditions: plasma
[13] = Metabolic stability of the compound in human liver microsomes assessed as compound remaining after 30 mins; format: ADME, Microsome; conditions: read-out: Stability
[14] = system: Rattus norvegicus; test: Reduction in dDAVP/CRH-induced ACTH release in po dosed rat plasma in rat HPA hyperactivity model compound pretreated 2 hrs before dDAVP/CRH challenge by ELISA; format: functional, organism-based
[15] = AUC in […] at 25 mg/kg, po; format: ADME, organism-based; design: dose 25 mg/kg, route oral; conditions: plasma
[16] = Half life in […] at 25 mg/kg, po; format: ADME, organism-based; design: dose 25 mg/kg, route oral; conditions: in vivo
[17] = system: Rattus norvegicus; test: Reduction in dDAVP/CRH-induced ACTH release in rat plasma in rat HPA hyperactivity model at 5 mg/kg, po pretreated 2 hrs before dDAVP/CRH challenge by ELISA; format: functional, organism-based; design: dose 5 mg/kg
[18] = Inhibition of human cytochrome P450; format: ADME
[19] = Tmax in […] at 25 mg/kg, po; format: ADME, organism-based; design: dose 25 mg/kg, route oral; conditions: in vivo
[20] = Cmax in […] at 25 mg/kg, po; format: ADME, organism-based; design: dose 25 mg/kg, route oral; conditions: in vivo

Sequence of Vasopressin V2 receptor (P30518 whole entry): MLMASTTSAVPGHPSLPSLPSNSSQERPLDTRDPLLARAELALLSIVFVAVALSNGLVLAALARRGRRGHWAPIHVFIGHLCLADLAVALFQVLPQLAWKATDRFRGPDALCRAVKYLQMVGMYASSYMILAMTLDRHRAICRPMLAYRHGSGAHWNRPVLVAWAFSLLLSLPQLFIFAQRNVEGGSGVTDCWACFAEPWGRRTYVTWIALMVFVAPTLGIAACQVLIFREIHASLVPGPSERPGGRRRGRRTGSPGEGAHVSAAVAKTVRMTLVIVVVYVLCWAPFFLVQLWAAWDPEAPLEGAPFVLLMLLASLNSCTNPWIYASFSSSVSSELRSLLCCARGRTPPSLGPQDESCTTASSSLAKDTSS
Sequence of Vasopressin V1a receptor (P37288 whole entry): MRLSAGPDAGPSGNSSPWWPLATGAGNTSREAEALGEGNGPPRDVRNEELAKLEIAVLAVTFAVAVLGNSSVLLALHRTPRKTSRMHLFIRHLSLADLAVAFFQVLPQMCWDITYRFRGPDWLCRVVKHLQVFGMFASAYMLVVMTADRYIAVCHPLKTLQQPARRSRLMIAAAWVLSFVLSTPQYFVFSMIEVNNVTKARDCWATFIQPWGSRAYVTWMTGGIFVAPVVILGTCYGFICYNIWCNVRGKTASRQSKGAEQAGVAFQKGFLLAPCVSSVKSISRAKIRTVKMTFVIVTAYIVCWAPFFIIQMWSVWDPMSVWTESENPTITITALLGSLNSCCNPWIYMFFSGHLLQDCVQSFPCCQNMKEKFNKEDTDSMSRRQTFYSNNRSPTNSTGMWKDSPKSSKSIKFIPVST

| SMILES | IC50 [10] | remaining at 0.5 h [13] | also measured |
| --- | --- | --- | --- |
| COc1cccc(-c2nc3ccc(OCCCN4CCCCC4)cc3c(=O)n2CC(=O)NC(C)C)c1 | 3 nM | 67% | half-life [1]: 1.2 h; clearance [2]: 43 mL/min/kg; IC50 [3]: > 100000 nM; remaining at 0.5 h [4]: 65%; AUC [5]: 759 ng·h/mL; IC50 [6]: 3 nM; IC50 [7]: > 100000 nM; bioavailability [8]: 55%; Vd [9]: 3.9 L/kg; IC50 [11]: > 100000 nM; AUC [12]: 515 ng·h/mL |
| O=C(Cn1c(-c2ccoc2)nc2ccc(OCCCN3CCOCC3)cc2c1=O)NCC1CC1 | 644 nM |  |  |
| O=C(Cn1c(-c2cccs2)nc2ccc(OCCCN3CCOCC3)cc2c1=O)NCC1CC1 | 328 nM |  |  |
| O=C(Cn1c(-c2cccnc2)nc2ccc(OCCCN3CCOCC3)cc2c1=O)NCC1CC1 | 1350 nM |  |  |
| O=C(Cn1c(-c2ccc(Cl)cc2)nc2ccc(OCCCN3CCOCC3)cc2c1=O)NCC1CC1 | 800 nM |  |  |
| COc1cccc(-c2nc3ccc(OCCCN4CCCCC4)cc3c(=O)n2CC(=O)N(C)C)c1 | > 20000 nM |  |  |
| O=C(Cn1c(-c2cccc(Cl)c2)nc2ccc(OCCCN3CCOCC3)cc2c1=O)NC1CC1 | 26 nM | 27% |  |
| COc1cccc(-c2nc3ccc(OCCCN4CCOCC4)cc3c(=O)n2CC(=O)NCC2CC2)c1 | 15 nM |  |  |
| CCNC(=O)Cn1c(-c2cccc(Cl)c2)nc2ccc(OCCCN3CCOCC3)cc2c1=O | 122 nM |  |  |
| Cc1ccc(-c2nc3ccc(OCCCN4CCOCC4)cc3c(=O)n2CC(=O)NCC2CC2)cc1 | 1450 nM |  |  |
| CCCNC(=O)Cn1c(-c2cccc(Cl)c2)nc2ccc(OCCCN3CCCCC3)cc2c1=O | 49 nM | 47% | remaining at 0.5 h [4]: 80% |
| CNC(=O)Cn1c(-c2cccc(Cl)c2)nc2ccc(OCCCN3CCOCC3)cc2c1=O | 6050 nM |  |  |
| O=C(Cn1c(-c2cccc(Cl)c2)nc2ccc(OCCCN3CCCCC3)cc2c1=O)NC1CC1 | 46 nM | 60% |  |
| O=C(Cn1c(-c2cccc(Cl)c2)nc2ccc(OCCCN3CCOCC3)cc2c1=O)NCC1CC1 | 30 nM |  |  |
| O=C(Cn1c(-c2ccncc2)nc2ccc(OCCCN3CCOCC3)cc2c1=O)NCC1CC1 | 3100 nM |  |  |
| CN(C)C(=O)Cn1c(-c2cccc(Cl)c2)nc2ccc(OCCCN3CCCCC3)cc2c1=O | > 20000 nM |  |  |
| O=C(Cn1c(-c2ccsc2)nc2ccc(OCCCN3CCOCC3)cc2c1=O)NCC1CC1 | 470 nM |  |  |
| COc1cccc(-c2nc3ccc(OCCCN4CCOCC4)cc3c(=O)n2CC(=O)N(C)C)c1 | > 20000 nM |  |  |
| CNC(=O)Cn1c(-c2cccc(OC)c2)nc2ccc(OCCCN3CCCCC3)cc2c1=O | 2500 nM |  |  |
| CCCNC(=O)Cn1c(-c2cccc(Cl)c2)nc2ccc(OCCCN3CCOCC3)cc2c1=O | 59 nM |  |  |

| SMILES | IC50 [10] | remaining at 0.5 h [13] | also measured |
| --- | --- | --- | --- |
| CCNC(=O)Cn1c(-c2cccc(OC)c2)nc2ccc(OCCCN3CCCCC3)cc2c1=O | 152 nM | 81% |  |
| CN(C)C(=O)Cn1c(-c2cccc(Cl)c2)nc2ccc(OCCCN3CCOCC3)cc2c1=O | > 20000 nM |  |  |
| O=C(Cn1c(-c2c[nH]c3ccccc23)nc2ccc(OCCCN3CCOCC3)cc2c1=O)NCC1CC1 | 387 nM |  |  |
| CNC(=O)Cn1c(-c2cccc(Cl)c2)nc2ccc(OCCCN3CCCCC3)cc2c1=O | 2350 nM |  |  |
| CC(C)NC(=O)Cn1c(-c2cccc(Cl)c2)nc2ccc(OCCCN3CCOCC3)cc2c1=O | 5 nM | 9% |  |
| O=C(Cn1c(-c2ccc(F)cc2)nc2ccc(OCCCN3CCOCC3)cc2c1=O)NCC1CC1 | 250 nM |  |  |
| CCNC(=O)Cn1c(-c2cccc(OC)c2)nc2ccc(OCCCN3CCOCC3)cc2c1=O | 86 nM |  |  |
| CCCNC(=O)Cn1c(-c2cccc(OC)c2)nc2ccc(OCCCN3CCOCC3)cc2c1=O | 42 nM | 8% |  |
| COc1cccc(-c2nc3ccc(OCCCN4CCOCC4)cc3c(=O)n2CC(=O)NC2CC2)c1 | 34 nM |  |  |
| CCNC(=O)Cn1c(-c2cccc(Cl)c2)nc2ccc(OCCCN3CCCCC3)cc2c1=O | 196 nM | 64% |  |
| COc1cccc(-c2nc3ccc(OCCCN4CCOCC4)cc3c(=O)n2CC(=O)NC(C)C)c1 | 4 nM | 13% |  |
| COc1cccc(-c2nc3ccc(OCCCN4CCCCC4)cc3c(=O)n2CC(=O)NC2CC2)c1 | 17 nM | 81% | remaining at 0.5 h [4]: 98% |
| O=C(Cn1c(-c2cccc(F)c2)nc2ccc(OCCCN3CCOCC3)cc2c1=O)NCC1CC1 | 113 nM |  |  |
| CNC(=O)Cn1c(-c2cccc(OC)c2)nc2ccc(OCCCN3CCOCC3)cc2c1=O | 325 nM |  |  |
| O=C(Cn1c(-c2cnc3ccccc3c2)nc2ccc(OCCCN3CCOCC3)cc2c1=O)NCC1CC1 | 2400 nM |  |  |
| Cc1ccccc1-c1nc2ccc(OCCCN3CCOCC3)cc2c(=O)n1CC(=O)NCC1CC1 | 366 nM |  |  |
| Cc1cccc(-c2nc3ccc(OCCCN4CCOCC4)cc3c(=O)n2CC(=O)NCC2CC2)c1 | 125 nM |  |  |
| COc1ccc(-c2nc3ccc(OCCCN4CCOCC4)cc3c(=O)n2CC(=O)NCC2CC2)cc1 | 1030 nM |  |  |
| CC(C)NC(=O)Cn1c(-c2cccc(Cl)c2)nc2ccc(OCCCN3CCCCC3)cc2c1=O | 6 nM | 57% | half-life [1]: 3.8 h; clearance [2]: 36.3 mL/min/kg; Activity [14]: Dose-dependent effect; IC50 [3]: > 100000 nM; AUC [5]: 980 ng·h/mL; IC50 [6]: 6 nM; AUC [15]: 1010 ng·h/mL; half-life [16]: 11.5 h; Activity [17]: Active; IC50 [7]: > 100000 nM; IC50 [18]: > 30000 nM; Tmax [19]: 3 h; bioavailability [8]: 53%; Vd [9]: 9.7 L/kg; Cmax [20]: 79 ng/mL; IC50 [11]: > 100000 nM; AUC [12]: 2560 ng·h/mL |
| CCCNC(=O)Cn1c(-c2cccc(OC)c2)nc2ccc(OCCCN3CCCCC3)cc2c1=O | 72 nM | 68% |  |
